The target in this experiment is T1, AM2 receptor (CALCRL+RAMP3) (Homo sapiens, UniProt O60896+Q16602).
T1 construct: host or cells: 1321N1
Description: AM2 receptor inhibition, LANCE TR-FRET cAMP agonist-antagonist competition assay. Particulars: inhibition of AM induced cAMP activation; 1321N1 cells transfected with CALCRL+RAMP3; read-out: AM2 pIC50 (converted). The format is cell-based. The procedure:
Compounds were assessed for their ability to inhibit ligand-induced elevations of cAMP, using the Perkin Elmer LANCE cAMP assay using commercially-available cells expressing a specific receptor of interest using the following general procedure:
Compounds were prepared in dimethyl sulfoxide (DMSO—99.9% pure) (Sigma Aldrich, Cat #: D4540) added to powder stocks to produce a 20 mM solution (100% DMSO) that was sonicated at 37° C. for 10 minutes to fully dissolve the compounds. The 20 mM stocks were diluted further in DMSO to produce a 2 mM solution that was sonicated at 37° C. for 10 minutes. 2 mM stocks were dissolved in assay/stimulation buffer to produce a 400 μM solution that was sonicated at 37° C. for 10 minutes for all cAMP assays. All stocks were stored at −20° C. Then serial dilution (Dilution factor 10) was performed to achieve the desire experimental concentrations.
Competition assays were performed according to the manufactures instructions using LANCE® TR-FRET cAMP assay kit (Perkin Elmer, Cat #: AD0264). Serial dilutions (3 μl/well) of the molecules were plated in a 384-well OptiPlate (Perkin Elmer, Cat #: 6007299) in duplicates. Appropriate controls (100% stimulation: Forskolin and 0% stimulation: Vehicle control) (6 μl/well) were included in each plate for data normalization. Following the compound addition, 6 μl of G-protein coupled receptor overexpressing cells/Alexa Fluor antibody solution (1:100 dilution) was added in each well at a desired density of 2500 cells/well. The overexpressing cell lines were purchased from DiscoveRx, Birmingham, UK. After spinning the plate at 1000 rpm for 1 minute and vortexing briefly, the cells were pre-incubated with the compounds for 30 minutes at room temperature (covered). Then 3 μl of the equivalent peptide ligand (EC50 dose) was added to all the wells except vehicle and forskolin controls. The plate were then spun down at 1000 rpm for 1 minute and once finished they were vortexed briefly and covered. Cells were stimulated in the presence of the ligands for 15 minutes at room temperature. After stimulation 12 μl of detection mix (Europium-Chelate streptavidin/biotinylated cAMP tracer solution) was added to all wells and incubated for 60 minutes at room temperature. The plate was then read on the Enspire multimode Plate reader (Perkin Elmer), at; 320/340 nm excitation and 615/665 nm emission was recorded.
• 28 mL Hank's Balanced salt solution (+MgCl2, +CaCl2)—(Thermo Fisher Cat #:14170112) • 150 μl HEPES (1M)—(Thermo Fisher Cat #:15630080) • 400 μl Stabilizer (DTPA) Purified BSA (7.5%)—(Perkin Elmer, Cat #: CR84-100) • 60 μl IBMX (250 mM)—(Sigma Aldrich, Cat #: 15879) Specific cAMP/Agonist-Antagonist Competition Assays
The ability of a compound to inhibit the AM induced cAMP activation in AM2 receptor-expressing cells (1321N1 cells transfected with CALCRL+RAMP3, sourced from DiscoverX catalogue number 95-0169C6) was assessed using the protocol above.

T1 sequence (Q16602 23-461): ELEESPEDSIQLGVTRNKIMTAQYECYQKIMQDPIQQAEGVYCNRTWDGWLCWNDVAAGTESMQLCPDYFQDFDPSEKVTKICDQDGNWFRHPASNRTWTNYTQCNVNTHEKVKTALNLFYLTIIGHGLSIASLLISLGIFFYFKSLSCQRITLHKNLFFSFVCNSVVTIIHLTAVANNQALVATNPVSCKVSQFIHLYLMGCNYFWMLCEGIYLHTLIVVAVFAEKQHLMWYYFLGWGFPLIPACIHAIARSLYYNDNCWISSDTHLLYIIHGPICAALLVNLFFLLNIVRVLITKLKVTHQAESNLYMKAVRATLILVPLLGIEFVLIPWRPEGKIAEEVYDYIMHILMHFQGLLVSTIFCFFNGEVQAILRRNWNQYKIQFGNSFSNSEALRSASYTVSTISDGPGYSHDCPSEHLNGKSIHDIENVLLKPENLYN
T1 sequence (O60896 24-148): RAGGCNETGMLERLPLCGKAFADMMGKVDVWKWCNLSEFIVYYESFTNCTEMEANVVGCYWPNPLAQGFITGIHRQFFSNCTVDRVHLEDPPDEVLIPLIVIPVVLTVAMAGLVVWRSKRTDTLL

Take `CNCc1ccccc1CN(C(=O)C(C)(C)C)[C@@H](C)C(=O)Nc1ccc2c(c1)CC1(C2)C(=O)Nc2ncccc21` (stereo partly drawn) [Example 34, N-(2-((Methylamino)methyl)benzyl)-N-((2S)-1-oxo-1-((2′-oxo-1,1′,2′,3-tetrahydrospiro[indene-2,3′-pyrrolo[2,3-b]pyridin]-5-yl)amino)propan-2-yl)pivalamide]: the IC50 was 12.3 nM.

Regarding `CNCc1ccccc1CN(C(=O)C(C)(C)C)[C@H](C)C(=O)Nc1ccc2c(c1)CC1(C2)C(=O)Nc2ncccc21` (stereo partly drawn) [Example 35, N-(2-((Methylamino)methyl)benzyl)-N-((2R)-1-oxo-1-((2′-oxo-1,1′,2′,3-tetrahydrospiro[indene-2,3′-pyrrolo[2,3-b]pyridin]-5-yl)amino)propan-2-yl)pivalamide], the IC50 is 18.2 nM.

For `CNCc1c(F)cccc1CN(CC(=O)Nc1ccc2c(c1)CC1(C2)C(=O)Nc2ncccc21)C(=O)C(C)(C)C` (centres unmarked) [Example 36, N-(3-fluoro-2-((methylamino)methyl)benzyl)-N-(2-oxo-2-((2′-oxo-1,1′,2′,3-tetrahydrospiro[indene-2,3′-pyrrolo[2,3-b]pyridin]-5-yl)amino)ethyl)pivalamide], the IC50 was 93.3 nM.

On to `CNCc1cc(F)c(F)cc1CN(CC(=O)Nc1ccc2c(c1)CC1(C2)C(=O)Nc2ncccc21)C(=O)C(C)(C)C` (centres unmarked) [Example 37, N-(4,5-difluoro-2-((methylamino)methyl)benzyl)-N-(2-oxo-2-((2′-oxo-1,1′,2′,3-tetrahydrospiro[indene-2,3′-pyrrolo[2,3-b]pyridin]-5-yl)amino)ethyl)pivalamide], for which the IC50 is 145 nM.

Take `Cc1cc2c(cc1NC(=O)CN(Cc1ccccc1CN)C(=O)C(C)(C)C)CC1(C2)C(=O)Nc2ncccc21` (centres unmarked) [Example 39, N-(2-(Aminomethyl)benzyl)-N-(2-((5-methyl-2′-oxo-1,1′,2,3-tetrahydrospiro[indene-2,3′-pyrrolo[2,3-b]pyridin]-6-yl)amino)-2-oxoethyl)pivalamide]: the IC50 is 15.5 nM.

Regarding `CNCc1ccccc1CN(CC(=O)Nc1cc2c(cc1C)CC1(C2)C(=O)Nc2ncccc21)C(=O)C(C)(C)C` (centres unmarked) [Example 40, N-(2-((5-Methyl-2′-oxo-1,1′,2′,3-tetrahydrospiro[indene-2,3′-pyrrolo[2,3-b]pyridin]-6-yl)amino)-2-oxoethyl)-N-(2-((methylamino)methyl)benzyl)pivalamide], the IC50 is 7.41 nM.

Consider `CC(C)(C)C(=O)N(CC(=O)Nc1ccc2c(c1)CC1(C2)C(=O)Nc2ncccc21)Cc1ccccc1C(=N)NO` (centres unmarked) [Example 41, N-(2-(N-Hydroxycarbamimidoyl)benzyl)-N-(2-oxo-2-((2′-oxo-1,1′,2′,3-tetrahydrospiro[indene-2,3′-pyrrolo[2,3-b]pyridin]-5-yl)amino)ethyl)pivalamide], for which the IC50 was 100 nM.

`CC(=N)NCc1ccccc1CN(CC(=O)Nc1ccc2c(c1)CC1(C2)C(=O)Nc2ncccc21)C(=O)C(C)(C)C` (centres unmarked) [Example 42, N-(2-(Acetimidamidomethyl)benzyl)-N-(2-oxo-2-((2′-oxo-1,1′,2′,3-tetrahydrospiro[indene-2,3′-pyrrolo[2,3-b]pyridin]-5-yl)amino)ethyl)pivalamide]: the IC50 was 135 nM.

With `CC(C)(C)OC(=O)N(CC(=O)Nc1ccc2c(c1)CC1(C2)C(=O)Nc2ncccc21)Cc1ccccc1CN1CCC1` (centres unmarked) [Example 44, tert-Butyl 2-(azetidin-1-ylmethyl)benzyl(2-oxo-2-((2′-oxo-1,1′,2′,3-tetrahydrospiro[indene-2,3′-pyrrolo[2,3-b]pyridin]-5-yl)amino)ethyl)carbamate], the IC50 is 74.1 nM.

For the compound `O=C(CN(Cc1ccccc1CN1CCC1)C(=O)CC(F)(F)F)Nc1ccc2c(c1)CC1(C2)C(=O)Nc2ncccc21` (centres unmarked) [Example 45, N-(2-(Azetidin-1-ylmethyl)benzyl)-3,3,3-trifluoro-N-(2-oxo-2-((2′-oxo-1,1′,2,3-tetrahydrospiro[indene-2,3′-pyrrolo[2,3-b]pyridin]-5-yl)amino)ethyl)propanamide], the IC50 was 245 nM.

Take `O=C(CN(Cc1ccccc1CN1CCC1)C(=O)C1CCCC1)Nc1ccc2c(c1)CC1(C2)C(=O)Nc2ncccc21` (centres unmarked) [Example 46, N-(2-(Azetidin-1-ylmethyl)benzyl)-N-(2-oxo-2-((2′-oxo-1,1′,2′,3-tetrahydrospiro[indene-2,3′-pyrrolo[2,3-b]pyridin]-5-yl)amino)ethyl)cyclopentanecarboxamide]: the IC50 was 2.82 nM.

Take `CC1(C(=O)N(CC(=O)Nc2ccc3c(c2)CC2(C3)C(=O)Nc3ncccc32)Cc2ccccc2CN2CCC2)CC1` (centres unmarked) [Example 47, N-(2-(Azetidin-1-ylmethyl)benzyl)-1-methyl-N-(2-oxo-2-((2′-oxo-1,1′,2′,3-tetrahydrospiro[indene-2,3′-pyrrolo[2,3-b]pyridin]-5-yl)amino)ethyl)-cyclopropanecarboxamide]: the IC50 is 15.5 nM.

`O=C(CN(Cc1ccccc1CN1CCC1)C(=O)C1CC1)Nc1ccc2c(c1)CC1(C2)C(=O)Nc2ncccc21` (centres unmarked) [Example 49, N-(2-(Azetidin-1-ylmethyl)benzyl)-N-(2-oxo-2-((2′-oxo-1,1′,2′,3-tetrahydrospiro[indene-2,3′-pyrrolo[2,3-b]pyridin]-5-yl)amino)ethyl)cyclopropanecarboxamide]: the IC50 was 10.2 nM.

Regarding `COC(=O)N(CC(=O)Nc1ccc2c(c1)CC1(C2)C(=O)Nc2ncccc21)Cc1ccccc1CN1CCC1` (centres unmarked) [Example 50, Methyl 2-(azetidin-1-ylmethyl)benzyl(2-oxo-2-((2′-oxo-1,1′,2′,3-tetrahydrospiro[indene-2,3′-pyrrolo[2,3-b]pyridin]-5-yl)amino)ethyl)carbamate], the IC50 was 74.1 nM.

Turning to `O=C(CN(Cc1ccccc1CN1CCC1)C(=O)c1ccccc1)Nc1ccc2c(c1)CC1(C2)C(=O)Nc2ncccc21` (centres unmarked) [Example 51, N-(2-(Azetidin-1-ylmethyl)benzyl)-N-(2-oxo-2-((2′-oxo-1,1′,2′,3-tetrahydrospiro[indene-2,3′-pyrrolo[2,3-b]pyridin]-5-yl)amino)ethyl)benzamide], the IC50 was 85.1 nM.

For the compound `O=C(CN(Cc1ccccc1CN1CCC1)C(=O)c1ccccn1)Nc1ccc2c(c1)CC1(C2)C(=O)Nc2ncccc21` (centres unmarked) [Example 52, N-(2-(Azetidin-1-ylmethyl)benzyl)-N-(2-oxo-2-((2′-oxo-1,1′,2,3-tetrahydrospiro[indene-2,3′-pyrrolo[2,3-b]pyridin]-5-yl)amino)ethyl)picolinamide], the IC50 is 46.8 nM.

Consider `CNCc1ccc(F)cc1CN(CC(=O)Nc1ccc2c(c1)CC1(C2)C(=O)Nc2ncccc21)C(=O)C(C)(C)C` (centres unmarked) [Example 54, N-(5-Fluoro-2-((methylamino)methyl)benzyl)-N-(2-oxo-2-((2′-oxo-1,1′,2′,3-tetrahydrospiro[indene-2,3′-pyrrolo[2,3-b]pyridin]-5-yl)amino)ethyl)pivalamide], for which the IC50 is 3.55 nM.

On to `CNCc1cc(F)ccc1CN(CC(=O)Nc1ccc2c(c1)CC1(C2)C(=O)Nc2ncccc21)C(=O)C(C)(C)C` (centres unmarked) [Example 55, N-(4-Fluoro-2-((methylamino)methyl)benzyl)-N-(2-oxo-2-((2′-oxo-1,1′,2′,3-tetrahydrospiro[indene-2,3′-pyrrolo[2,3-b]pyridin]-5-yl)amino)ethyl)pivalamide], for which the IC50 was 9.77 nM.

With `CNCc1cccc(F)c1CN(CC(=O)Nc1ccc2c(c1)CC1(C2)C(=O)Nc2ncccc21)C(=O)C(C)(C)C` (centres unmarked) [Example 56, N-(2-Fluoro-6-((methylamino)methyl)benzyl)-N-(2-oxo-2-((2′-oxo-1,1′,2′,3-tetrahydrospiro[indene-2,3′-pyrrolo[2,3-b]pyridin]-5-yl)amino)ethyl)pivalamide], the IC50 was 151 nM.

Consider `CNCc1ccccc1CN(CC(=O)Nc1ccc2c(c1)CC1(C2)C(=O)Nc2ncccc21)C(=O)COC` (centres unmarked) [Example 57, 2-Methoxy-N-(2-((methylamino)methyl)benzyl)-N-(2-oxo-2-((2′-oxo-1,1′,2′,3-tetrahydrospiro[indene-2,3′-pyrrolo[2,3-b]pyridin]-5-yl)amino)ethyl)acetamide], for which the IC50 is 269 nM.
